Counter-ions that a name gives are not always drawn. Bounds are passed on as bounds.

The assay addresses T1, Androgen Receptor (Homo sapiens, UniProt P10275, T878A).
T1 construct: the AR gene was modified, using CRISPR/Cas9 editing, so the expressed AR protein included an 11 amino acid HiBiT tag; endogenous in cells; host or cells: clonal LnCaP-derived line, AR gene edited by CRISPR/Cas9
The assay can be described thus: Androgen Receptor Degradation Assay (Nano-Glo HiBiT). The class given is cell-based. The note with it: LNCaP, 18 h, HiBiT-tagged AR in human LnCaP cells, read-out: mean asymptote max. The method, boiled down:
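LnCaP cells with CRISPR-knocked-in N-terminal HiBiT-tagged AR (10,000/well) treated 18 h at 37 °C with PROTACs over 11 threefold concentrations; lytic HiBiT luminescence normalised to DMSO (0%) and cell-free (100%) controls. Relative DC50 = 4-parameter fit inflection; absolute DC50 = 50% degradation interpolation; Dmax = maximum observed degradation.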
In general terms: The HiBiT peptide binds its large partner to form an active luciferase.

T1 sequence (P10275 whole entry T878A): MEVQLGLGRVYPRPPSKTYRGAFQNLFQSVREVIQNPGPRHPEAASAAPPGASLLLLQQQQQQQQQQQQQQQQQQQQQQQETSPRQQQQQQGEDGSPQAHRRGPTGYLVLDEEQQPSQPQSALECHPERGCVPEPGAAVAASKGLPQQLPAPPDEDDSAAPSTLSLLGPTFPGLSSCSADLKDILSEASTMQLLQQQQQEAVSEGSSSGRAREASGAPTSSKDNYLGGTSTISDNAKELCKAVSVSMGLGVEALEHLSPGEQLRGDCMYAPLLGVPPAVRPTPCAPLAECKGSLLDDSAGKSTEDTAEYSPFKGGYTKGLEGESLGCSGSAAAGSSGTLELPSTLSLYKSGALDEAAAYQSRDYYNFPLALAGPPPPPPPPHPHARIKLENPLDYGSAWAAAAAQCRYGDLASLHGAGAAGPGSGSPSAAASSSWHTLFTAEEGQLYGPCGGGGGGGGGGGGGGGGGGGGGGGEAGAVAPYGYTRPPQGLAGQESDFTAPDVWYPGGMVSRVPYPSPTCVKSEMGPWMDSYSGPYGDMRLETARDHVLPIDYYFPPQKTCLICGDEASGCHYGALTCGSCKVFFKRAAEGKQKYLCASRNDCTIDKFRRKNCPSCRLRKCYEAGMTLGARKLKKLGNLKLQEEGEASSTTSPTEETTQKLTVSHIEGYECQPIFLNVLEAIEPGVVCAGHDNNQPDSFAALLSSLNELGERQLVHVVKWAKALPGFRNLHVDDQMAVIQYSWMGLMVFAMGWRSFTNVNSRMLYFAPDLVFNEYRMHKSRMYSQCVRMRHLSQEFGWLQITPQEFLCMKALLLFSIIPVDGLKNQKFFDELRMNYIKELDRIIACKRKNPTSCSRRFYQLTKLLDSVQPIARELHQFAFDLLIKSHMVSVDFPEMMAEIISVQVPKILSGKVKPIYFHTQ
T1 sequence (Q96SW2 whole entry partner): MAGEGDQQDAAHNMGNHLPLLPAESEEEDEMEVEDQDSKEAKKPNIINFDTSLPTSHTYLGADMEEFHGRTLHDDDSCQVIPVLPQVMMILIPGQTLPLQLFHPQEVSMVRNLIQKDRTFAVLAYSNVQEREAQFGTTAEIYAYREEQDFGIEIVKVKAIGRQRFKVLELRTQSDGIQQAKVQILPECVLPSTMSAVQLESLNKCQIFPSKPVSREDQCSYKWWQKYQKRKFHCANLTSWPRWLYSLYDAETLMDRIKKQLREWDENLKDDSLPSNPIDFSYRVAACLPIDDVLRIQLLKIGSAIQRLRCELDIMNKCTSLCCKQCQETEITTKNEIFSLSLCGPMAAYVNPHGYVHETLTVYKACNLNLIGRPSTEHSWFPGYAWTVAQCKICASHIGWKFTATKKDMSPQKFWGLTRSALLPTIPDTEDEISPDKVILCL
T1 sequence (Q16531 whole entry partner): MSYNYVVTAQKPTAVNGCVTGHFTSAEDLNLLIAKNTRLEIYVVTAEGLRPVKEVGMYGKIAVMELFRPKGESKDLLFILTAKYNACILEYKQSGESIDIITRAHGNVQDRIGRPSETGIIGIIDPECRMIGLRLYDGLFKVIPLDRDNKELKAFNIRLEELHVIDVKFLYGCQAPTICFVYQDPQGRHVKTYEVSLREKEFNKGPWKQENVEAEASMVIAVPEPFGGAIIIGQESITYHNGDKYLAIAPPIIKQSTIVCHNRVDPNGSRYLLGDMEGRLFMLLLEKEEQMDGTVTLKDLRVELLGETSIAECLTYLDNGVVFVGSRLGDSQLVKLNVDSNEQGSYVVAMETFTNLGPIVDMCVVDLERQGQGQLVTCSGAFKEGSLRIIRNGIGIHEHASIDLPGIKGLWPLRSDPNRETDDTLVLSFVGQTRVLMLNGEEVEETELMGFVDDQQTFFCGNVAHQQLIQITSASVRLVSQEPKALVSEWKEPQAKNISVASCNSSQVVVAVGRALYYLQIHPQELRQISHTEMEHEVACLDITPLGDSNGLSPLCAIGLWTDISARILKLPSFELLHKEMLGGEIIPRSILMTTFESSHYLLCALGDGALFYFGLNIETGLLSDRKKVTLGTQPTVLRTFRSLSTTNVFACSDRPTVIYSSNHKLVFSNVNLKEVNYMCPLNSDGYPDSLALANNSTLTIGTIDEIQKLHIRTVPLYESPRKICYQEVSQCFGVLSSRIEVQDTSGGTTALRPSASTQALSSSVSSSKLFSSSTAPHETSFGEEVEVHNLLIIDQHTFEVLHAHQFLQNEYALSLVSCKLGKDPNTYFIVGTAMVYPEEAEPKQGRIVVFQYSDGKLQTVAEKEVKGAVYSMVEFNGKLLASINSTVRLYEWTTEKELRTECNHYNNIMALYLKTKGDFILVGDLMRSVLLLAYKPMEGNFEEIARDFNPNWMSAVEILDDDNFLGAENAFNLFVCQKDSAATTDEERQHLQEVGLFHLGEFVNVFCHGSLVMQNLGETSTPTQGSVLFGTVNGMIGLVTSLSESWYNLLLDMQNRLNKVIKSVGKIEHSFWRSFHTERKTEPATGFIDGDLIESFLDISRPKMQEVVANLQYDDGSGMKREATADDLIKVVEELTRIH

As to `N#Cc1ccc(O[C@H]2CC[C@H](NC(=O)c3ccc(C4CCN(C(=O)CN5CCC(n6ccc7c(N8CCC(=O)NC8=O)cccc76)CC5)CC4)cc3)CC2)cc1Cl` [AR1, N-((1r,4r)-4-(3-Chloro-4-cyanophenoxy)cyclohexyl)-4-(1-(2-(4-(4-(2,4-dioxotetrahydropyrimidin-1(2H)-yl)-1H-indol-1-yl)piperidin-1-yl)acetyl)piperidin-4-yl)benzamide], the Dmax is not below 50%. Regarding `CC(C)n1ccc2c(N3CCC(=O)NC3=O)cc(C(=O)N3CCN(CCCOc4ccc(N5C(=S)N(c6ccc(C#N)c(C(F)(F)F)c6)C(=O)C5(C)C)cc4)CC3)cc21` [EAR94, 4-(3-(4-(3-(4-(4-(2,4-Dioxotetrahydropyrimidin-1(2H)-yl)-1-isopropyl-1H-indole-6-carbonyl)piperazin-1-yl)propoxy)phenyl)-4,4-dimethyl-5-oxo-2-thioxoimidazolidin-1-yl)-2-(trifluoromethyl)benzonitrile formate], the Dmax was not below 50%.

In the case of `N#Cc1ccc(O[C@H]2CC[C@H](NC(=O)c3ccc(N4C[C@@H]5[C@H](CN6CCC(n7ncc8c(N9CCC(=O)NC9=O)cccc87)CC6)[C@@H]5C4)nn3)CC2)cc1Cl` [EAR235, N-((1r,4R)-4-(3-chloro-4-cyanophenoxy)cyclohexyl)-6-((1R,5S,6R)-6-((4-(4-(2,4-dioxotetrahydropyrimidin-1(2H)-yl)-1H-indazol-1-yl)piperidin-1-yl)methyl)-3-azabicyclo[3.1.0]hexan-3-yl)pyridazine-3-carboxamide], the Dmax is not below 50%. Take `CC1(C)[C@H](NC(=O)c2ccc(N3CCC(CN4CCC(n5ccc6c(N7CCC(=O)NC7=O)cncc65)CC4)CC3)nc2)C(C)(C)[C@H]1Oc1ccc(C#N)c(Cl)c1` [EAR20, N-((1r,3r)-3-(3-Chloro-4-cyanophenoxy)-2,2,4,4-tetramethylcyclobutyl)-6-(4-((4-(4-(2,4-dioxotetrahydropyrimidin-1(2H)-yl)-1H-pyrrolo[2,3-c]pyridin-1-yl)piperidin-1-yl)methyl)piperidin-1-yl)nicotinamide]: the Dmax is not below 50%. Then `N#Cc1ccc(O[C@H]2CC[C@H](NC(=O)c3ccc(N4C[C@]5(CN6CCC(n7ncc8c(N9CCC(=O)NC9=O)cccc87)CC6)C[C@]5(C(F)(F)F)C4)nn3)CC2)cc1Cl` [EAR244, N-((1r,4R)-4-(3-chloro-4-cyanophenoxy)cyclohexyl)-6-((1R,5R)-1-((4-(4-(2,4-dioxotetrahydropyrimidin-1(2H)-yl)-1H-indazol-1-yl)piperidin-1-yl)methyl)-5-(trifluoromethyl)-3-azabicyclo[3.1.0]hexan-3-yl)pyridazine-3-carboxamide], with not below 50%; and `N#Cc1ccc(O[C@H]2CC[C@H](NC(=O)c3ccc(N4CCC(CN5CCC(n6ccc7c(N8CCC(=O)NC8=O)ccnc76)CC5)CC4)nn3)CC2)cc1Cl` [EAR149, N-((1r,4r)-4-(3-Chloro-4-cyanophenoxy)cyclohexyl)-6-(4-((4-(4-(2,4-dioxotetrahydropyrimidin-1(2H)-yl)-1H-pyrrolo[2,3-b]pyridin-1-yl)piperidin-1-yl)methyl)piperidin-1-yl)pyridazine-3-carboxamide], with not below 50%; and `N#Cc1ccc(O[C@H]2CC[C@H](NC(=O)c3ccc(N4CCC(CN5CCC(c6ncc7c(N8CCC(=O)NC8=O)cccn67)CC5)CC4)nn3)CC2)cc1Cl` [EAR177, N-((1r,4r)-4-(3-Chloro-4-cyanophenoxy)cyclohexyl)-6-(4-((4-(8-(2,4-dioxotetrahydropyrimidin-1(2H)-yl)imidazo[1,5-a]pyridin-3-yl)piperidin-1-yl)methyl)piperidin-1-yl)pyridazine-3-carboxamide], with not below 50%. As to `CC(C)n1ccc2c(N3CCC(=O)NC3=O)cc(C(=O)N3CCN(CCCOc4ccc(C(=O)N[C@H]5CC[C@H](Oc6ccc(C#N)c(Cl)c6)CC5)nc4)CC3)cc21` [EAR59, N-((1r,4r)-4-(3-Chloro-4-cyanophenoxy)cyclohexyl)-5-(3-(4-(4-(2,4-dioxotetrahydropyrimidin-1(2H)-yl)-1-isopropyl-1H-indole-6-carbonyl)piperazin-1-yl)propoxy)picolinamide], the Dmax is not below 50%. The value for `N#Cc1ccc(O[C@H]2CC[C@H](NC(=O)c3ccc(N4CCC(CN5CCC(n6ccc7c(N8CCC(=O)NC8=O)cccc76)CC5)CC4)cn3)CC2)cc1Cl` [EAR186, N-((1r,4r)-4-(3-Chloro-4-cyanophenoxy)cyclohexyl)-5-(4-((4-(4-(2,4-dioxotetrahydropyrimidin-1(2H)-yl)-1H-indol-1-yl)piperidin-1-yl)methyl)piperidin-1-yl)picolinamide] was not below 50%. Regarding `N#Cc1ccc(O[C@H]2CC[C@H](NC(=O)c3ccc(N4CCC(CN5CCC(n6ccc7c(N8CCC(=O)NC8=O)cc(F)cc76)CC5)CC4)nn3)CC2)cc1Cl` [EAR31, N-((1r,4r)-4-(3-Chloro-4-cyanophenoxy)cyclohexyl)-6-(4-((4-(4-(2,4-dioxotetrahydropyrimidin-1(2H)-yl)-6-fluoro-1H-indol-1-yl)piperidin-1-yl)methyl)piperidin-1-yl)pyridazine-3-carboxamide hydrochloride], the Dmax is not below 50%. As to `CC1(C)C(=O)N(c2ccc(C#N)c(C(F)(F)F)c2)C(=S)N1c1ccc(N2CCC(N3CCC(n4ccc5c(N6CCC(=O)NC6=O)cncc54)CC3)CC2)cc1` [EAR96, 4-(3-(4-(4-(4-(2,4-Dioxotetrahydropyrimidin-1(2H)-yl)-1H-pyrrolo[2,3-c]pyridin-1-yl)-[1,4′-bipiperidin]-1′-yl)phenyl)-4,4-dimethyl-5-oxo-2-thioxoimidazolidin-1-yl)-2-(trifluoromethyl)benzonitrile formate], the Dmax was not below 50%. On to `N#Cc1ccc(O[C@H]2CC[C@H](NC(=O)c3cnc(N4CCC(CN5CCC(n6ncc7c(N8CCC(=O)NC8=O)cc(F)cc76)CC5)CC4)nc3)CC2)cc1Cl` [AR205, N-((1r,4r)-4-(3-Chloro-4-cyanophenoxy)cyclohexyl)-2-(4-((4-(4-(2,4-dioxotetrahydropyrimidin-1(2H)-yl)-6-fluoro-1H-indazol-1-yl)piperidin-1-yl)methyl)piperidin-1-yl)pyrimidine-5-carboxamide], for which the Dmax is not below 50%. In the case of `N#Cc1ccc(O[C@H]2CC[C@H](NC(=O)c3cnc(N4CCC(CN5CCC(n6ccc7c(N8CCC(=O)NC8=O)cncc76)CC5)CC4)cn3)CC2)cc1Cl` [AR16, N-((1r,4r)-4-(3-Chloro-4-cyanophenoxy)cyclohexyl)-5-(4-((4-(4-(2,4-dioxotetrahydropyrimidin-1(2H)-yl)-1H-pyrrolo[2,3-c]pyridin-1-yl)piperidin-1-yl)methyl)piperidin-1-yl)pyrazine-2-carboxamide], the Dmax was not below 50%. The value for `N#Cc1ccc(O[C@H]2CC[C@H](NC(=O)c3ccc(N4CCC(CN5CCC(n6ncc7c(N8CCC(=O)NC8=O)cccc76)CC5)CC4)nc3)CC2)cc1Cl` [EAR42, N-((1r,4r)-4-(3-Chloro-4-cyanophenoxy)cyclohexyl)-6-(4-((4-(4-(2,4-dioxotetrahydropyrimidin-1(2H)-yl)-1H-indazol-1-yl)piperidin-1-yl)methyl)piperidin-1-yl)nicotinamide hydrochloride] was not below 50%; that for `N#Cc1ccc(O[C@H]2CC[C@H](NC(=O)c3ccc(N4CCC(CN5CCC6(CC5)CC(n5ccc7c(N8CCC(=O)NC8=O)cccc75)C6)CC4)nn3)CC2)cc1Cl` [EAR185, N-((1r,4r)-4-(3-Chloro-4-cyanophenoxy)cyclohexyl)-6-(4-((2-(4-(2,4-dioxotetrahydropyrimidin-1(2H)-yl)-1H-indol-1-yl)-7-azaspiro[3.5]nonan-7-yl)methyl)piperidin-1-yl)pyridazine-3-carboxamide hydrochloride] was not below 50%; that for `N#Cc1ccc(O[C@H]2CC[C@H](NC(=O)c3ccc(N4CCC(CN5CCC(n6ccc7c(-n8ccc(=O)[nH]c8=O)cccc76)CC5)CC4)nn3)CC2)cc1Cl` [EAR141, N-((1r,4r)-4-(3-Chloro-4-cyanophenoxy)cyclohexyl)-6-(4-((4-(4-(2,4-dioxo-3,4-dihydropyrimidin-1(2H)-yl)-1H-indol-1-yl)piperidin-1-yl)methyl)piperidin-1-yl)pyridazine-3-carboxamide, hydrochloride] was not below 50%. In the case of `N#Cc1ccc(O[C@H]2CC[C@H](NC(=O)c3ccc(N4CC[C@H](CN5CCC(n6ncc7c(N8CCC(=O)NC8=O)cccc76)CC5)C4)nn3)CC2)cc1Cl` [EAR238, N-((1r,4R)-4-(3-chloro-4-cyanophenoxy)cyclohexyl)-6-((R)-3-((4-(4-(2,4-dioxotetrahydropyrimidin-1(2H)-yl)-1H-indazol-1-yl)piperidin-1-yl)methyl)pyrrolidin-1-yl)pyridazine-3-carboxamide], the Dmax is not below 50%. Regarding `N#Cc1ccc(O[C@H]2CC[C@H](NC(=O)c3ccc(C4CCN(CC(=O)N5CCC(n6ncc7c(N8CCC(=O)NC8=O)cccc76)CC5)CC4)nn3)CC2)cc1Cl` [EAR167, N-((1r,4r)-4-(3-Chloro-4-cyanophenoxy)cyclohexyl)-6-(1-(2-(4-(4-(2,4-dioxotetrahydropyrimidin-1(2H)-yl)-1H-indazol-1-yl)piperidin-1-yl)-2-oxoethyl)piperidin-4-yl)pyridazine-3-carboxamide], the Dmax was not below 50%. Take `CC1(C)C(=O)N(c2ccc(C#N)c(C(F)(F)F)c2)C(=S)N1c1ccc(N2CCC(CCN3CCC(n4ccc5c(N6CCC(=O)NC6=O)cncc54)CC3)CC2)cc1` [EAR100, 4-(3-(4-(4-(2-(4-(4-(2,4-Dioxotetrahydropyrimidin-1(2H)-yl)-1H-pyrrolo[2,3-c]pyridin-1-yl)piperidin-1-yl)ethyl)piperidin-1-yl)phenyl)-4,4-dimethyl-5-oxo-2-thioxoimidazolidin-1-yl)-2-(trifluoromethyl)benzonitrile formate]: the Dmax is not below 50%.

(Values after US20250205344A1, “2,4-DIOXOTETRAHYDROPYRIMIDINYL DERATIVES AS DEGRONS IN PROTACS” (GLAXOSMITHKLINE INTELLECTUAL PROPERTY DEVELOPMENT LIMITED, priority 2022, published 2025).)
